Source: patent US12503485B2, “Human aminosterol ENT-03 compounds, related compositions comprising the same, and methods of using the same” (Enterin, Inc., priority 2019, dated 2025)
Where “and” joins values, the source holds several entries; their conditions need not be identical. Equal entries are not always repeated. Where two headings read alike, the source gives them in different places.

How the values were obtained:
[1] = Weight loss in C57bl/6 male mice, once weekly dosing; type: in vivo
[2] = system: transcriptomes of the stomach, jejunum and ileum; type: in vivo, mice
Method: Young (20 week) and aged (80 week) C57bl/6 male mice were administered ENT-03 (40 mg/kg) or vehicle (water) by oral gavage daily for 2 weeks. Over this period of time clinical observations were unremarkable as were the gross and microscopic examinations of the GI tract. The transcriptomes of the stomach, jejunum and ileum were analyzed by RNAseq technology. Comparative analyses of the transcripts from untreated animals identified numerous transcripts that differed in abundance between the corresponding tissues from old and young individuals. […] Thus, within these three distinct regions of the mouse GI tract, ageing is associated with changes in the transcriptome.
Statistical analysis of RNA-sequencing data was performed using R programming language. Transcripts with less than one read count per million reads in all samples of each tissue were removed. The raw count data for the samples were then normalised using trimmed mean of M-values normalisation and transformed with voom (Law et al., 2014), resulting in log 2-transformed counts per million with associated precision weights. […] Statistical comparisons were performed using linear modelling, as implemented in the Bioconductor package limma (Ritchie et al., 2015). Significance values (p-values) were adjusted for multiple testing using Benjamini-Hochberg procedure (Benjamini et al., 1995). For each comparison (e.g. group A versus group B), a positive log 2-transformed fold change indicates up-regulation in group A relative to group B.
To investigate the overlap between contrasts, the number of overlapping differentially expressed genes (defined using adjusted p-value <0.05) between all pairwise combinations of the comparisons performed were counted. For each comparison, the Jaccard index, defined as the intersection over the union, measures the similarity between the two contrasts under consideration. The p-value was calculated using a hypergeometric test taking into account the universe size under the assumption that the contrasts and genes are independent.

[3] = Pharmacokinetic study, intravenous administration in male SD rats; type: in vivo; details: rat plasma, I.V. 5 mg/kg
Method: The objective of this example was to determine the pharmacokinetic profile of ENT-03 (Compound III) via intravenous and oral administration in male SD Rats.
Animal feeding control: Animals were food fasted overnight prior to dosing and fed 4 hours after administration having free access to water.
PK Sample Analyses: Concentrations of ENT-03 (Compound III) in the plasma and dose samples were analyzed using a LC-MS/MS method. WinNonlin (Phoenix™, version 6.1) or other similar software was used for pharmacokinetic calculations. The following pharmacokinetic parameters were calculated, whenever possible from the plasma concentration versus time data.
IV Bolus administration: T1/2, C0, AUClast, AUCinf, MRTinf, Cl, Vss, Number of Points for Regression.

PS19 mice = test: Morris water maze, PS19 tauopathy mouse model; type: in vivo; details: 2.5 mg/kg i.p. once per week for 6 weeks, vs vehicle
Xenopus leavis tadpole = test: In vivo activity on Xenopus tadpole in water; details: 10 μg/ml in 500 ml distilled water, about 1 hour
Method: To assess the activity of ENT-05 in vivo, the compound was added to 500 ml of distilled water to a concentration of 10 μg/ml. A Xenopus leavis tadpole, premetamorphic, was placed into the solution. […] A second animal was placed in 500 ml of water, containing 10 μg/ml ENT-05, but also 50 mM NaCl. In this case, the animal survived. The animal was then transferred to spring water without either salt or ENT-05 and remained active over the following days.

[4] = Body weight of mice after i.p. deuterated ENT-03; type: in vivo
Description: The presence of the deuterium on the side chain likely slows the action of the 2-methylacyl-coenzyme A racemase on C-25, the subsequent action of the dehydrogenase that produces the 24,25-trans-unsaturated derivative by removing the deuterium atoms at C24 and C25, and the subsequent hydration and oxidation at the C24 bond catalyzed by the D-bifunctional protein. Instead, the metabolism of ENT-03D3 will begin with the oxidation at C24 by CYP46A1, yielding the following compound: […]

PTPN1/PTP1B = biological target: T1, PTPN1/PTP1B (Homo sapiens, UniProt P18031); test: Phosphatase profiling PTPN1/PTP1B, 10-dose IC50, fluorescence; type: biochemical
T1 construct: The enzyme was the human truncated form (1-321), recombinantly produced in Escherichia coli; host or cells: Escherichia coli
T1 sequence (P18031 1-321): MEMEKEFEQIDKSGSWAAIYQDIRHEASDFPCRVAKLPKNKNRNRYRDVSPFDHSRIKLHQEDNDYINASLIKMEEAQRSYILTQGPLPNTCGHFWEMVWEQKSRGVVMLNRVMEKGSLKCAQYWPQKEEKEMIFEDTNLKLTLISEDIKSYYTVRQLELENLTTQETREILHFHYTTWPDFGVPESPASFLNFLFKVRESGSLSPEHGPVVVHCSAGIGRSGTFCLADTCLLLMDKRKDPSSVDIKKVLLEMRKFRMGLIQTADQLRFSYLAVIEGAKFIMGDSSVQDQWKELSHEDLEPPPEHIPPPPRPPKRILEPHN

PTPN7/LC-PTP = biological target: T2, PTPN7/LC-PTP (Homo sapiens, UniProt P35236); test: Phosphatase assay PTPN7/LC-PTP; type: biochemical
T2 construct: purchased Recation Biology Inc
T2 sequence (P35236 whole entry): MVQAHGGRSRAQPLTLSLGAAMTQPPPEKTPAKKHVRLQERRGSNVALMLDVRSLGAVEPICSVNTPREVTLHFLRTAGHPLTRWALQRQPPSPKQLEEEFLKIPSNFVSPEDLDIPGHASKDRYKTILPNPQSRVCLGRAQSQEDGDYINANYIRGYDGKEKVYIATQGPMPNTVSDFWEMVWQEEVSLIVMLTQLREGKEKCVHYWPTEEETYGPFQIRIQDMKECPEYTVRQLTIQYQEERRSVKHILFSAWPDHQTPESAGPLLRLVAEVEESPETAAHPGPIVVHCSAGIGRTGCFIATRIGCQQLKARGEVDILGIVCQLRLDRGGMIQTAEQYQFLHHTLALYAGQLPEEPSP

[5] = intraperitoneal 3, 5, 10 mg/kg once weekly over 2 weeks
[6] = intraperitoneal once weekly over 6 weeks
[7] = individual animals Rat 1-3, listed as ENT-03 (Compound III), 5 mg/kg

CC(CCCC(C)C1CCC2C3C(O)CC4CC(NCCCNCCCCNCCCN)CCC4(C)C3CCC12C)C(=O)O (single isomer, unassigned; ent-03) [ENT-03, 3-β-Spermino-7α-hydroxy-5α-cholestanoic acid]
clinical appearance of treated animals [1, 5]: clinically normal
weight loss, in words [1, 5]: dose dependent weight loss
clinical appearance of treated animals [1, 6]: clinically normal
weight loss, in words [1, 6]: dose dependent weight loss
number of differentially expressed genes ([2]; ileum, treated aged mice): 1162 genes
number of differentially expressed genes ([2]; ileum, treated young mice): 80 genes
genes changed significantly in response to exposure ([2]; jejunum and ileum, both young and aged mice): no more than 2 genes
number of differentially expressed genes ([2]; jejunum, treated aged mice): 382 genes
number of differentially expressed genes ([2]; jejunum, treated young mice): 42 genes
Ageing genes complemented by ENT-03 (30 most significant) Stomach ([2]; stomach, aged mice, gene named in value): shadow of prion protein
genes down-regulated in ageing overlapping with genes up-regulated by treatment ([2]; stomach, old mice, P<0.0001 hypergeometric test): 37 genes
number of differentially expressed genes ([2]; stomach, treated aged mice, 40 mg/kg oral daily 2 weeks, p(adj)<0.05): 63 genes
number of differentially expressed genes ([2]; stomach, treated young (20 week) mice, 40 mg/kg oral daily 2 weeks, p(adj)<0.05): 13 genes
ageing genes further down regulated in the ageing direction by treatment ([2]; stomach, young mice): 12 genes
clinical observations and gross and microscopic examinations of the GI tract ([2]; young and aged C57bl/6 male mice, 40 mg/kg oral gavage daily 2 weeks): unremarkable
AUClInf ([3]; Mean of 3 male SD rats): 986.457 µg·h/mL
AUClast ([3]; Mean of 3 male SD rats): 609.005 µg·h/mL
AUC—%Extrap—obs ([3]; Mean of 3 male SD rats): 38.2%
C0 ([3]; Mean of 3 male SD rats): 86.337 µg/mL
Cl_obs ([3]; Mean of 3 male SD rats): 5.1 mL/h/kg
MRTInf—obs ([3]; Mean of 3 male SD rats): 24.6 h
T1/2 ([3]; Mean of 3 male SD rats): 18.2 h
Vss—obs ([3]; Mean of 3 male SD rats): 0.125 L/kg
AUClInf [3, 7]: 922.477 µg·h/mL and 941.13 µg·h/mL and 1095.763 µg·h/mL
AUClast [3, 7]: 557.542 µg·h/mL and 608.321 µg·h/mL and 661.154 µg·h/mL
AUC—%Extrap—obs [3, 7]: 39.6% and 35.4% and 39.7%
C0 [3, 7]: 80.402 µg/mL and 102.409 µg/mL and 76.2 µg/mL
Cl_obs [3, 7]: 5.42 mL/h/kg and 5.31 mL/h/kg and 4.57 mL/h/kg
MRTInf—obs [3, 7]: 25.3 h and 22.9 h and 25.5 h
T1/2 [3, 7]: 18.6 h (2×) and 17.5 h
Vss—obs [3, 7]: 0.137 L/kg and 0.122 L/kg and 0.116 L/kg
learning during the training phase (PS19 mice): improved
memory on the probe day (PS19 mice): improved
effect on tadpole (Xenopus leavis tadpole): No similar effect
effect on body weight, in words [4]: loss of weight

CC(C)[C@@H](CC[C@@H](C)[C@H]1CC[C@H]2[C@@H]3[C@H](O)C[C@H]4C[C@@H](NCCCNCCCCNCCCN)CC[C@]4(C)[C@H]3CC[C@]12C)OS(=O)(=O)O (single isomer, unassigned) [ENT-02, trodusquemine]
% Activity (PTPN1/PTP1B; Conc 1.00E−04 M): −0.16%
Slope (signal/min) (PTPN1/PTP1B; Conc 1.00E−04 M): −68 signal/min
% Activity (PTPN1/PTP1B; Conc 1.11E−05 M): 0.68%
Slope (signal/min) (PTPN1/PTP1B; Conc 1.11E−05 M): 292 signal/min
% Activity (PTPN1/PTP1B; Conc 1.23E−06 M): 86.43%
Slope (signal/min) (PTPN1/PTP1B; Conc 1.23E−06 M): 37260 signal/min
% Activity (PTPN1/PTP1B; Conc 1.37E−07 M): 93.11%
Slope (signal/min) (PTPN1/PTP1B; Conc 1.37E−07 M): 40137 signal/min
% Activity (PTPN1/PTP1B; Conc 1.52E−08 M): 102.11%
Slope (signal/min) (PTPN1/PTP1B; Conc 1.52E−08 M): 44021 signal/min
% Activity (PTPN1/PTP1B; Conc 3.33E−05 M): −1.02%
Slope (signal/min) (PTPN1/PTP1B; Conc 3.33E−05 M): −440 signal/min
% Activity (PTPN1/PTP1B; Conc 3.70E−06 M): 38.12%
Slope (signal/min) (PTPN1/PTP1B; Conc 3.70E−06 M): 16431 signal/min
% Activity (PTPN1/PTP1B; Conc 4.12E−07 M): 92.69%
Slope (signal/min) (PTPN1/PTP1B; Conc 4.12E−07 M): 39959 signal/min
% Activity (PTPN1/PTP1B; Conc 4.57E−08 M): 99.09%
Slope (signal/min) (PTPN1/PTP1B; Conc 4.57E−08 M): 42717 signal/min
% Activity (PTPN1/PTP1B; Conc 5.08E−09 M): 100.94%
Slope (signal/min) (PTPN1/PTP1B; Conc 5.08E−09 M): 43513 signal/min
HILLSLOPE (PTPN1/PTP1B; IC50 curve fit): −2.19
activity on PTPN7/LC-PTP, in words (PTPN7/LC-PTP): target
